Experimental data: ChEMBL document CHEMBL1201862, “PubChem BioAssay data set” (2004)
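The compound was tested at five concentrations on cells cultured in 96-well plates, with a 48-hour exposure period. GI50 = concentration required for 50% inhibition of growth.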 Calls of active or inactive are those of the source. Rule as the data show it: active = GI50 up to about 1.1 µM and inactive = higher.

Legend:
Assay in all cases: NCI anticancer screen, dose series, 48 h
OVCAR-5 = system: OVCAR-5
COLO 205 = system: COLO 205
T47D = system: T47D
OVCAR-3 = system: OVCAR-3
MCF7 = system: MCF7
UO-31 = system: UO-31
MDA-MB-231 = system: MDA-MB-231
TK-10 = system: TK-10
A498 = system: A498
ACHN = system: ACHN
NCI-H226 = system: NCI-H226
K562 = system: K562
SN12C = system: SN12C
BT-549 = system: BT-549
M14 = system: M14
SW-620 = system: SW-620
HT-29 = system: HT-29
OVCAR-8 = system: OVCAR-8
IGROV-1 = system: IGROV-1
NCI-H522 = system: NCI-H522
PC-3 = system: PC-3
RXF 393 = system: RXF 393
HCT-15 = system: HCT-15
Malme-3M = system: Malme-3M
786-0 = system: 786-0
RPMI-8226 = system: RPMI-8226
MOLT-4 = system: MOLT-4
UACC-62 = system: UACC-62
LOX IMVI = system: LOX IMVI
NCI-H23 = system: NCI-H23
EKVX = system: EKVX
SNB-75 = system: SNB-75
Hs-578T = system: Hs-578T
U-251 = system: U-251
SF-295 = system: SF-295
SK-MEL-2 = system: SK-MEL-2
HCC 2998 = system: HCC 2998
SF-539 = system: SF-539
KM12 = system: KM12
SNB-19 = system: SNB-19
NCI-H460 = system: NCI-H460
DU-145 = system: DU-145
CCRF-CEM = system: CCRF-CEM
UACC-257 = system: UACC-257
SF-268 = system: SF-268
MDA-MB-435 = system: MDA-MB-435
A549 = system: A549
SK-MEL-28 = system: SK-MEL-28
MDA-N = system: MDA-N
HCT-116 = system: HCT-116
SK-MEL-5 = system: SK-MEL-5
HOP-92 = system: HOP-92
CAKI-1 = system: CAKI-1
HOP-62 = system: HOP-62
SK-OV-3 = system: SK-OV-3
NCI/ADR-RES = system: NCI/ADR-RES
SR = system: SR
HL-60 = system: HL-60
OVCAR-4 = system: OVCAR-4

Measured: GI50

C=C(C)C1CCC(C(=O)O)CC1 (stereo unspecified)
inactive: OVCAR-5 > 100 µM | COLO 205 > 100 µM | T47D > 100 µM | OVCAR-3 > 100 µM | MCF7 > 100 µM | UO-31 > 100 µM | MDA-MB-231 > 100 µM | TK-10 > 100 µM | A498 > 100 µM | ACHN > 100 µM | NCI-H226 > 100 µM | K562 > 100 µM | SN12C > 100 µM | BT-549 > 100 µM | M14 > 100 µM | SW-620 > 100 µM | HT-29 > 100 µM | OVCAR-8 > 100 µM | IGROV-1 > 100 µM | NCI-H522 > 100 µM | PC-3 > 100 µM | RXF 393 > 100 µM | Malme-3M > 100 µM | 786-0 > 100 µM | RPMI-8226 > 100 µM | MOLT-4 > 100 µM | UACC-62 > 100 µM | LOX IMVI > 100 µM | NCI-H23 > 100 µM | EKVX > 100 µM | SNB-75 > 100 µM | Hs-578T > 100 µM | U-251 > 100 µM | SF-295 > 100 µM | SK-MEL-2 > 100 µM | HCC 2998 > 100 µM | SF-539 > 100 µM | KM12 > 100 µM | SNB-19 > 100 µM | NCI-H460 > 100 µM | DU-145 > 100 µM | CCRF-CEM > 100 µM | UACC-257 > 100 µM | SF-268 > 100 µM | MDA-MB-435 > 100 µM | A549 > 100 µM | SK-MEL-28 > 100 µM | MDA-N > 100 µM | HCT-116 > 100 µM | SK-MEL-5 > 100 µM | HOP-92 > 100 µM | CAKI-1 > 100 µM | HOP-62 > 100 µM | SK-OV-3 > 100 µM
> 100 µM: HCT-15

CC(=O)N(C)c1ccc(Nc2ccnc3ccc4nn(C)nc4c23)cc1
inactive: OVCAR-5 30.1 µM | COLO 205 19.1 µM | T47D 20.1 µM | OVCAR-3 19.3 µM | MCF7 13.4 µM | UO-31 9.02 µM | TK-10 22.3 µM | ACHN 13.7 µM | NCI-H226 15.6 µM | SN12C 26 µM | BT-549 31.8 µM | M14 31.4 µM | SW-620 35.3 µM | HT-29 29.4 µM | OVCAR-8 36.1 µM | NCI-H522 19 µM | PC-3 26.9 µM | RXF 393 16.9 µM | Malme-3M 18.9 µM | 786-0 26.9 µM | NCI/ADR-RES 28.1 µM | RPMI-8226 20.3 µM | MOLT-4 13.6 µM | UACC-62 16.1 µM | LOX IMVI 16 µM | NCI-H23 32.4 µM | EKVX 24.3 µM | SNB-75 21.3 µM | Hs-578T 17.3 µM | U-251 33.5 µM | SF-295 21.8 µM | SR 25.6 µM | SK-MEL-2 17.9 µM | SF-539 19.2 µM | KM12 24.4 µM | SNB-19 37.3 µM | DU-145 28.6 µM | CCRF-CEM 17.3 µM | UACC-257 21.7 µM | SF-268 24.8 µM | MDA-MB-435 39.3 µM | A549 17.5 µM | SK-MEL-28 20.7 µM | MDA-N 36.1 µM | HL-60 18.4 µM | HCT-116 19 µM | SK-MEL-5 19.9 µM | CAKI-1 12.2 µM | HOP-62 26 µM | SK-OV-3 22.6 µM | OVCAR-4 28.4 µM
21.5 µM: HCT-15

COc1c(CCl)cc(-c2cc(=O)c3ccccc3s2)cc1CCl
inactive: OVCAR-5 > 100 µM | COLO 205 3.33 µM | T47D 1.66 µM | OVCAR-3 11.5 µM | MCF7 1.91 µM | UO-31 1.95 µM | MDA-MB-231 2.76 µM | TK-10 26.9 µM | A498 20.4 µM | ACHN 45.2 µM | NCI-H226 30.1 µM | K562 2.68 µM | SN12C > 100 µM | BT-549 36.6 µM | M14 > 100 µM | OVCAR-8 15 µM | IGROV-1 2.51 µM | NCI-H522 1.99 µM | PC-3 > 100 µM | RXF 393 1.63 µM | Malme-3M 1.5 µM | RPMI-8226 3.77 µM | MOLT-4 1.91 µM | UACC-62 4.99 µM | LOX IMVI 1.86 µM | NCI-H23 18.9 µM | EKVX > 100 µM | SNB-75 6.78 µM | Hs-578T 9.57 µM | U-251 18.8 µM | SF-295 11.9 µM | SR 3.18 µM | SK-MEL-2 10.1 µM | HCC 2998 2.29 µM | SF-539 6.55 µM | KM12 3.33 µM | SNB-19 29.3 µM | NCI-H460 22.9 µM | DU-145 > 100 µM | CCRF-CEM 2.24 µM | UACC-257 > 100 µM | SF-268 9.23 µM | MDA-MB-435 > 100 µM | A549 37.8 µM | SK-MEL-28 > 94.4 µM | MDA-N 6.08 µM | HL-60 2.59 µM | HCT-116 5.58 µM | SK-MEL-5 39.4 µM | CAKI-1 7.62 µM | HOP-62 10.6 µM | SK-OV-3 27.3 µM | OVCAR-4 3.58 µM
> 100 µM: HCT-15
active: 786-0 0.65 µM | HOP-92 0.0449 µM

O=S(=O)(O)c1ccc2c(/N=N/c3cccc4ccccc34)c(O)c(S(=O)(=O)O)cc2c1
inactive: OVCAR-5 > 100 µM | COLO 205 > 100 µM | T47D > 100 µM | OVCAR-3 > 100 µM | UO-31 > 100 µM | MDA-MB-231 > 100 µM | TK-10 > 100 µM | ACHN > 100 µM | NCI-H226 > 100 µM | K562 > 100 µM | SN12C > 100 µM | BT-549 > 100 µM | M14 > 100 µM | SW-620 > 100 µM | HT-29 > 100 µM | OVCAR-8 > 100 µM | IGROV-1 > 100 µM | NCI-H522 > 100 µM | PC-3 > 100 µM | RXF 393 > 100 µM | Malme-3M > 100 µM | 786-0 > 100 µM | NCI/ADR-RES > 100 µM | RPMI-8226 > 100 µM | MOLT-4 > 100 µM | UACC-62 > 100 µM | LOX IMVI > 100 µM | NCI-H23 > 100 µM | EKVX > 100 µM | SNB-75 > 100 µM | Hs-578T > 100 µM | U-251 > 100 µM | SF-295 > 100 µM | SK-MEL-2 > 100 µM | KM12 > 100 µM | SNB-19 > 100 µM | DU-145 > 100 µM | CCRF-CEM > 100 µM | UACC-257 > 100 µM | SF-268 > 100 µM | MDA-MB-435 > 100 µM | A549 > 100 µM | SK-MEL-28 > 100 µM | MDA-N > 100 µM | HL-60 > 100 µM | HCT-116 > 100 µM | SK-MEL-5 > 100 µM | HOP-92 > 100 µM | CAKI-1 > 100 µM | HOP-62 > 100 µM | SK-OV-3 > 100 µM | OVCAR-4 > 100 µM
> 100 µM: HCT-15
